According to paper PMC5209880, “Mobilization of hematopoietic stem cells with the novel CXCR4 antagonist POL6326 (balixafortide) in healthy volunteers—results of a dose escalation trial” (Journal of Translational Medicine, 2017):
Read-outs that look alike come from different tables or passages of the source.

Tests used:
[1] = Pharmacokinetics from serial plasma samples after intravenous infusion
Procedure: (§1) A total of 27 volunteers were treated with balixafortide. A treatment consisted of a single intravenous infusion of balixafortide in normal saline at doses of 500, 1000, 1500, 2000 and 2500 μg/kg, based on actual weight, followed by sequential clinical and blood analyses (see below). Initially conceived as a classical 3 + 3 dose escalation design, the volunteers were assigned to four groups defined by increasing dose levels of balixafortide (500, 1000, 1500, and 2000 μg/kg) administered by constant rate infusion at over 2 h. Subsequently, amendments were added to test additional modalities: Group 6 received 2500 μg/kg under the same conditions. Volunteers assigned to Group 5 received a dose level of 2000 μg/kg by an continuously increasing infusion rate (ramp-infusion instead of constant rate infusion) applied over 2 h. In group 7, a dose level of 1000 μg/kg was infused over 1 h at a constant rate and compared (intra-individually) to the 2 h infusion given with an interval of ≥4 weeks. A second balixafortide treatment was furthermore tested in volunteers from groups 2, 3 and 6 with groups 2 and 3 receiving 2500 μg/kg and group 6 given 1500 μg/kg as the second infusion. […] Thus, to allow for intra-individual comparison, 12 donors received a second dose of balixafortide (2 h constant infusion rate for all) after a minimum wash-out period of 4 weeks.
Plasma samples were collected at the indicated times and kept frozen until immediately before analysis.
Serial plasma samples were assayed for balixafortide concentrations and pharmacokinetic parameters were calculated using Phoenix WinNonlin 6.4.

leukocytes = test: Mobilization of mature hematopoietic cells (blood counts, flow cytometry); assay type: in vivo, human
Procedure: (§2) Blood samples were collected at the indicated times (Figs. 1, 2, 3, 4, 5 and 6) and kept at room temperature (maximum 2–3 h.) until immediately before analysis. Complete blood counts were assessed with the Sysmex XT1800 hematology analyzer (Norderstedt, Germany). CD34+ cells were quantified using the single platform flow cytometry analysis with the SCE Kit [Becton–Dickinson (BD), Heidelberg, Germany] according to the manufacturer’s instructions and ISHAGE guidelines. In addition, multi-parametric flow cytometric analyses were performed to quantify co-mobilized mature cell subsets such as T (CD45+ CD3+), B (CD45+ CD19+) and NK (CD45+ CD56+ 16+) cells (Multitest, T cells, BD), T cell subpopulations (CD45+ CD3+ CD4+/CD8+, Multitest, TBNL cells, BD) and monocytes (CD45+ CD14+, all from BD). In addition, plasmacytoid dendritic cell progenitors (pro-pDCs) were identified as CD45dimCD34dimCD45RA + CD123high (all moABs from BD). Lyse-no-wash protocols were used in conjunction with BD counting beads for direct cell enumeration for CD34+ cells and T cell subsets; all other cell concentrations were calculated using frequencies relative to directly enumerated cell species, such as CD34+, CD45+ or CD3+ cells.

healthy male volunteers [2] = test: Subjective rating questionnaire of G-CSF vs. balixafortide at follow-up; details: number of responses
CD34+ cells (HSPC) = test: Mobilization of CD34+ cells, single platform flow cytometry of blood; assay type: in vivo, human
Procedure: A total of 27 volunteers were treated with balixafortide.
as §2

healthy male volunteers [3] = test: Phase I dose escalation trial: safety and tolerability, adverse events
Procedure: Additional eligibility (inclusion) criteria for treatment with balixafortide were the same as for G-CSF mobilized stem cell donation. Between G-CSF mobilization/HSPC donation and study participation there was a wash-out period of at least 6 weeks.
Study drug was administered on an in-patient basis in the phase I clinical trial unit of Goethe University Medical Center, the ‘Klinisches Studienzentrum Rhein-Main’. Volunteers were discharged 24 h after treatment, to return for a follow-up appointment 8–14 days thereafter.
as §1
Vital signs were monitored immediately prior to and in the first 24 h after the start of the infusion of balixafortide; serial blood samples were drawn for biochemical safety profiling and pharmacokinetic/pharmacodynamic analyses. Given the cationic nature of the compound [17] the risk of local or systemic symptoms of histamine release was identified and anti-histamine treatment was proposed (per protocol) in case of such symptoms. […] Volunteers who received prophylactic or therapeutic anti-histamine medication are listed accordingly in Table 1.

CD34+ cells = details: cited from earlier work
Source text: The ability of CXCR4 antagonists to rapidly dislodge stem cells from the marrow has been recognized for many years. Previously studied compounds were neither universally well tolerated nor very potent. The only currently approved CXCR4 antagonist plerixafor mobilized a median of 16 CD34+ cells per µL when administered alone (without G-CSF) in healthy donors, which is barely sufficient to generate a normal-sized graft in two apheresis sessions. || The comparator agent in our study was G-CSF given in split doses as is routine practice in our center; the rationale is twofold: more efficient mobilization and potentially better tolerability. […] Thus the advantage in efficiency of single-dose G-CSF vs. balixafortide at the doses tested here would be les ...

[4] = tested on: patients receiving a plerixafor-mobilized graft; details: recipients of a plerixafor-mobilized graft; cited from earlier work
CFU-C (HSPC) = test: Circulating colony-forming units-culture (CFU-C) in methylcellulose media; assay type: in vivo, human; details: all doses, mean ± SEM
Source text: Circulating colony-forming units-culture (CFU-C) were quantified by plating aliquots of lysed peripheral blood in commercial cytokine-replete methylcellulose media (StemMACS HSC-CFU lite with Epo, human, Miltenyi Biotec GmbH, Bergisch-Gladbach, Germany).

[5] = tested on: plasmacytoid dendritic cell progenitors (pro-pDCs); test: Mobilization of plasmacytoid dendritic cell progenitors (pro-pDCs), flow cytometry; assay type: in vivo, human; details: balixafortide 1st treatment, constant infusion rate, 2 h; n = 21, mean ± SEM
Procedure: as §2

healthy male volunteers [6] = details: in vivo
[7] = 500 μg/kg, 2 h const. infusion, n = 3 volunteers
[8] = 1000 μg/kg, 1 h const. infusion, n = 3 volunteers
[9] = 1000 μg/kg, 2 h const. infusion, n = 7 volunteers
[10] = 1500 μg/kg, 2 h const. infusion, n = 7 volunteers
[11] = 2000 μg/kg, 2 h const. infusion, n = 6 volunteers
[12] = 2000 μg/kg, 2 h ramp infusion, n = 3 volunteers
[13] = 2500 μg/kg, 2 h const. infusion, n = 10 volunteers

C[C@@H]1NC(=O)[C@H](Cc2c[nH]cn2)NC(=O)[C@H](Cc2ccc(O)cc2)NC(=O)[C@@H]2CCCN2C(=O)[C@H]2CCCN2C(=O)[C@H](CCCCN)NC(=O)[C@H](CCC(N)=O)NC(=O)[C@H](Cc2ccc(O)cc2)NC(=O)[C@@H]2CSSC[C@H](NC1=O)C(=O)N[C@@H](CO)C(=O)N[C@@H](C)C(=O)N1CCC[C@@H]1C(=O)N[C@@H](CCN)C(=O)N[C@@H](CCCNC(=N)N)C(=O)N[C@@H](Cc1ccc(O)cc1)C(=O)N2 [balixafortide]
Volume of distribution ([1]; human plasma, i.v. infusion 500-2500 µg/kg, Phoenix WinNonlin 6.4, approximately): 0.5 to 0.6 L/kg
Clearance ([1]; human, i.v. infusion): almost equal to the glomerular filtration rate
Dose dependence of Cmax and AUC ([1]; human, i.v. infusion 500-2500 µg/kg, n = 3-6): dose linearity for both Cmax and AUC
half-life ([1]; human, plasma, iv): ~5 h
Mature cells mobilized relative to G-CSF (leukocytes; doses of 1500-2500 µg/kg): approximately half as many mature cells as G-CSF
White blood counts (WBCs) reached (leukocytes; doses of 1500-2500 µg/kg, mean ± SEM): 25.3 ± 1.4 × 10*3 WBC/µL
Side effects in the course of treatment: Abdominal pain (healthy male volunteers [2]): 0
Side effects in the course of treatment: Bone pain (healthy male volunteers [2]): 0
Side effects in the course of treatment: Fatigue (healthy male volunteers [2]): 4
Side effects in the course of treatment: Fever (healthy male volunteers [2]): 0
Side effects in the course of treatment: Flu-like symptoms (healthy male volunteers [2]): 0
Side effects in the course of treatment: Headache (healthy male volunteers [2]): 1
Side effects in the course of treatment: Insomnia (healthy male volunteers [2]): 1
Side effects in the course of treatment: Palpitation (healthy male volunteers [2]): 0
Side effects in the course of treatment: Skin reactions (healthy male volunteers [2]): 13
Side effects in the course of treatment: Sweating (healthy male volunteers [2]): 1
Side effects in the course of treatment: Vomiting (healthy male volunteers [2]): 1
Time of peak CD34+ mobilization after the end of the infusion (CD34+ cells (HSPC); 500 µg/kg): 1 h
Time of peak CD34+ mobilization after the end of the infusion (CD34+ cells (HSPC); doses higher than 500 µg/kg): approximately 4 h
Mean peak mobilization of CD34+ cells (CD34+ cells (HSPC); doses of 1500-2500 µg/kg, single i.v. infusion, mean ± SEM): 38.2 ± 2.8 CD34+ cells/µL
Mild skin reactions such as flushing, urticaria or local itching, volunteers reporting (healthy male volunteers [3]; 500 µg/kg): 1/3
Infusion site erythema (volunteers with AE) (healthy male volunteers [3]; [7]): 1
Volunteers with AE (healthy male volunteers [3]; [7]): 1
Mild skin reactions such as flushing, urticaria or local itching, volunteers reporting (healthy male volunteers [3]; 1000 µg/kg): 4/10
Pruritus (volunteers with AE) (healthy male volunteers [3]; [8]): 1
Volunteers with AE (healthy male volunteers [3]; [8]): 1
BP increase (volunteers with AE) (healthy male volunteers [3]; [9]): 2
Infusion site pruritus (volunteers with AE) (healthy male volunteers [3]; [9]): 1
Pruritus (volunteers with AE) (healthy male volunteers [3]; [9]): 2
Volunteers with AE (healthy male volunteers [3]; [9]): 5
Mild skin reactions such as flushing, urticaria or local itching, volunteers reporting (healthy male volunteers [3]; 1500 µg/kg): 2/7
Erythema (volunteers with AE) (healthy male volunteers [3]; [10]): 1
Infusion site erythema (volunteers with AE) (healthy male volunteers [3]; [10]): 2
Infusion site irritation (volunteers with AE) (healthy male volunteers [3]; [10]): 1
Infusion site pruritus (volunteers with AE) (healthy male volunteers [3]; [10]): 1
Pruritus (volunteers with AE) (healthy male volunteers [3]; [10]): 1
Urticaria (volunteers with AE) (healthy male volunteers [3]; [10]): 1
Volunteers with AE (healthy male volunteers [3]; [10]): 2
Mild skin reactions such as flushing, urticaria or local itching, volunteers reporting (healthy male volunteers [3]; 2000 µg/kg): 8/9
Blood CK increased (volunteers with AE) (healthy male volunteers [3]; [11]): 2
Bone pain (volunteers with AE) (healthy male volunteers [3]; [11]): 1
Erythema (volunteers with AE) (healthy male volunteers [3]; [11]): 4
Flushing (volunteers with AE) (healthy male volunteers [3]; [11]): 1
Hypoasthesia (volunteers with AE) (healthy male volunteers [3]; [11]): 1
Pruritus (volunteers with AE) (healthy male volunteers [3]; [11]): 4
Urticaria (volunteers with AE) (healthy male volunteers [3]; [11]): 1
Volunteers with AE (healthy male volunteers [3]; [11]): 6
Flushing (volunteers with AE) (healthy male volunteers [3]; [12]): 1
Pruritus (volunteers with AE) (healthy male volunteers [3]; [12]): 2
Volunteers with AE (healthy male volunteers [3]; [12]): 2
Mild skin reactions such as flushing, urticaria or local itching, volunteers reporting (healthy male volunteers [3]; 2500 µg/kg): 7/10
Erythema (volunteers with AE) (healthy male volunteers [3]; [13]): 7
Feeling hot (volunteers with AE) (healthy male volunteers [3]; [13]): 1
Headache (volunteers with AE) (healthy male volunteers [3]; [13]): 1
Hypoasthesia (volunteers with AE) (healthy male volunteers [3]; [13]): 1
Hypoasthesia oral (volunteers with AE) (healthy male volunteers [3]; [13]): 2
Muscle tightness (volunteers with AE) (healthy male volunteers [3]; [13]): 1
Throat tightness (volunteers with AE) (healthy male volunteers [3]; [13]): 1
Vertigo (volunteers with AE) (healthy male volunteers [3]; [13]): 1
Volunteers with AE (healthy male volunteers [3]; [13]): 7
Severe adverse events (SAEs) (healthy male volunteers [3]; all doses 500-2500 µg/kg, 27 volunteers, 39 doses): No severe adverse events (SAEs) were observed
Systolic blood pressure reading of >150 mmHg, considered possibly related to study drug (healthy male volunteers [3]; whole trial): 2 subjects
Unexplained elevation in serum creatinine kinase, considered possibly related to study drug (healthy male volunteers [3]; whole trial): 2 subjects

c1cc(CN2CCCNCCNCCCNCC2)ccc1CN1CCCNCCNCCCNCC1 [plerixafor, reference compound]
Median CD34+ cells mobilized (CD34+ cells; administered alone (without G-CSF) in healthy donors): 16 CD34+ cells per µL
Patients who developed acute GvHD 3° or 4° [4]: 1/20

B1: filgrastim (protein, UniProt P09919 31-207, looked up)
Granulocyte …: TPLGPASSLPQSFLLKCLEQVRKIQGDGAALQEKLVSECATYKLCHPEELVLLGHSLGIPWAPLSSCPSQALQLAGCLSQLHSGLFLYQGLLQALEGISPELGPTLDTLQLDVADFATTIWQQMEELGMAPALQPTQGAMPAFASAFQRRAGGVLVASHLQSFLEVSYRVLRHLAQP
modifications: filgrastim, N-terminal Met
notes: cytokine, standard hematopoietic stem and progenitor cell mobilizing agent
Clonogenicity: mobilized CD34+ cells per 1 CFU-C (CFU-C (HSPC)): 3.2 ± 0.2 CD34+ cells
Mobilization of pDC progenitors (% of CD34+CD45dim) [5]: 2.18±0.34%
Ratio between T-lymphocytes and CD34+ cells in mobilized blood (leukocytes; mean ± SEM): 26.2 ± 1.98 :1
Mobilization response of CD34+ cells (CD34+ cells (HSPC); 5-day course of filgrastim 7.5-10 µg/kg per day in 2 divided doses, mean ± SEM): 121.6 ± 8.6 CD34+ cells/μL
Effectiveness of G-CSF regimen relative to balixafortide, CD34+ mobilization (CD34+ cells (HSPC); intra-individual comparison, balixafortide 1500-2500 µg/kg, on average): about three times as effective
Average CD34+ cell counts (CD34+ cells; same daily dose as a single injection): mid-sixties’ range
Side effects in the course of treatment: Abdominal pain (healthy male volunteers [6]): 2
Side effects in the course of treatment: Bone pain (healthy male volunteers [6]): 24
Side effects in the course of treatment: Fatigue (healthy male volunteers [6]): 11
Side effects in the course of treatment: Fever (healthy male volunteers [6]): 2
Side effects in the course of treatment: Flu-like symptoms (healthy male volunteers [6]): 21
Side effects in the course of treatment: Headache (healthy male volunteers [6]): 11
Side effects in the course of treatment: Insomnia (healthy male volunteers [6]): 0
Side effects in the course of treatment: Palpitation (healthy male volunteers [6]): 1
Side effects in the course of treatment: Skin reactions (healthy male volunteers [6]): 1
Side effects in the course of treatment: Sweating (healthy male volunteers [6]): 0
Side effects in the course of treatment: Vomiting (healthy male volunteers [6]): 0
